Laboratory results published in US20100209345A1, “Fluorinated Ligands for Targeting Peripheral Benzodiazepine Receptors” (Australian Nuclear Science & Technology Organisation, priority 2006, published 2010).
Entries after “also recorded” stand apart in the source; their conditions may differ.

How the values were obtained:
[1] = biological target: central benzodiazepine receptors; experiment: In vitro binding, [3H]-Flumazenil, brain cortex membrane preparation; conditions: [3H]-Flumazenil (2 nM), 25° C., 45 min, read-out: CBR IC50
In short: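 Brain cortex membranes bound with [3H]-flumazenil; non-specific binding defined by 20 μM flumazenil. Filtration on GF/B, washes in ice-cold 50 mM Tris/HCl pH 7.4, bound counts by scintillation, IC50 derived from displacement.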

[2] = biological target: T1, peripheral benzodiazepine receptors (Rattus norvegicus, UniProt P16257); experiment: In vivo blocking / competition of tracer uptake by pre-treatment with PBR and CBR ligands; conditions: rats; for Tracer uptake after pre-treatment with PK 11195 / Tracer uptake in the adrenals after pre-treatment with PK 11195: PK 11195 1 mg/kg 5 min prior to tracer; for Tracer uptake after pre-treatment with PK 11195 / Tracer uptake after pre-treatment with Ro 5-4864: PBR-expressing tissues (brain/peripheral organs, adrenals apart); for Tracer uptake after pre-treatment with Ro 5-4864 / Tracer uptake in the adrenals after pre-treatment with Ro 5-4864: Ro 5-4864 1 mg/kg 5 min prior to tracer; for Tracer uptake after pre-treatment with flumazenil (central benzodiazepine ligand): flumazenil 1 mg/kg 5 min prior to tracer, brain or peripheral organs; for Tracer uptake after pre-treatment with the non-radioactive analogue: non-radioactive analogue 1 mg/kg, PBR-expressing tissues
T1 construct: high uptake in the tissues which have known PBR sites; from tissue; host or cells: organs of living SD rats (brain and peripheral tissues), in vivo
Experimental: The criteria for significance were **p<0.01 (highly significant) and *p<0.05 (significant). No stars implies not statistical difference from normals or controls.
The biodistribution of PBR132* was undertaken in SD rats and analysis up to 4 h p.i. in the brain and peripheral tissues was performed. The specificity and selectivity of the tracer were assessed by pre-treatment with PBR and Central benzodiazepine receptor (CBR) specific ligands (1 mg/kg) 5 min prior to injection of PBR132*.
The biodistribution of PBR 147* was performed in SD rats and brain and peripheral tissues were analysised at 15, 30 min, 1, and 4 h p.i. The specificity and selectivity of the tracer was assessed by pre-treatment of the animals with the PBR ligands PK11195 and Ro 5-4864 and with Flumazenil for CBR at 1 mg/kg 5 min prior to injection of PBR 147*
The biodistribution of PBR102* and PBR111* were performed in SD rats and brain and peripheral tissues analysed at 15, 30 min, 1, and 4 h p.i. The specificity and selectivity of the tracers were assessed by pre-treatment with the PBR ligands PK11195 and Ro 5-4864 and with Flumazenil for CBR at 1 mg/kg 5 min prior to injection of the corresponding tracers.
The specificity and selectivity of the tracers were assessed by pre-treatment with the PBR ligands PK11195 and Ro 5-4864 and with Flumazenil for CBR at 1 mg/kg 5 min prior to injection of the corresponding tracers.

CCN(CC)C(=O)Cc1c(-c2ccc(OCCF)cc2)nc2ccc(Cl)cn12 [PBR102, 2-(2-(4-(2-fluoroethoxy)phenyl)-6-chloroimidazo[1,2-a]pyridin-3-yl)-N,N-diethylacetamide]
IC50 [1]: 1.56 µM
Tracer uptake after pre-treatment with PK 11195 [2]: decreased
Tracer uptake after pre-treatment with PK 11195 ([2]; listed as [^18F]PBR102): blocking effect
Tracer uptake in the adrenals after pre-treatment with PK 11195 [2]: increase
Tracer uptake after pre-treatment with Ro 5-4864 [2]: decreased
Tracer uptake after pre-treatment with Ro 5-4864 ([2]; listed as [^18F]PBR102): blocking effect
Tracer uptake in the adrenals after pre-treatment with Ro 5-4864 [2]: increase
Tracer uptake after pre-treatment with flumazenil (central benzodiazepine ligand) [2]: no effect
Tracer uptake after pre-treatment with flumazenil (central benzodiazepine ligand) ([2]; listed as [^18F]PBR102): does not reduce
Tracer uptake after pre-treatment with the non-radioactive analogue [2]: blocking effect

CCN(CC)C(=O)Cc1c(-c2ccc(OCCCF)cc2)nc2ccc(Cl)cn12 [PBR111, 2-(2-(4-(3-fluoropropoxy)phenyl)-6-chloroimidazo[1,2-a]pyridin-3-yl)-N,N-diethylacetamide]
IC50 [1]: 1.59 µM
Tracer uptake in the olfactory regions after pre-treatment with PK 11195 and Ro 5-4864 ([2]; 1 mg/kg 5 min prior to tracer, olfactory regions): non-significant decrease
Tracer uptake after pre-treatment with PK 11195 [2]: decreased
Tracer uptake after pre-treatment with PK 11195 ([2]; listed as [^18F]PBR111): reduced uptake; also recorded: blocking effect
Tracer uptake in the adrenals after pre-treatment with PK 11195 [2]: increase
Tracer uptake after pre-treatment with Ro 5-4864 [2]: decreased
Tracer uptake after pre-treatment with Ro 5-4864 ([2]; listed as [^18F]PBR111): reduced uptake; also recorded: blocking effect
Tracer uptake in the adrenals after pre-treatment with Ro 5-4864 [2]: increase
Tracer uptake after pre-treatment with flumazenil (central benzodiazepine ligand) [2]: no effect
Tracer uptake after pre-treatment with flumazenil (central benzodiazepine ligand) ([2]; listed as [^18F]PBR111): does not compete; also recorded: does not reduce
Tracer uptake after pre-treatment with the non-radioactive analogue ([2]; listed as [^18F]PBR111): reduced uptake; also recorded: blocking effect
